These results are taken from patent US20110076293A1, “TRIPTOLIDE DERIVATIVES FOR MODULATION OF APOPTOSIS AND IMMUNOSUPPRESSION” (priority 2002, published 2011).

For data set [1], the system named is Jurkat human T lymphocyte cell line. The data set can be described thus: Apoptosis assay (Annexin V) of compounds incubated with human serum. Here is the method:
(§1) Compounds of formula I, as shown in Table 1 above and in the Examples, were assayed for their capacity to induce apoptosis in cells from the Jurkat human T lymphocyte cell line, after incubation with pooled human serum for varying periods of time at 37° C. (see Example 19). An ester prodrug, triptolide-14-succinate, designated PG490-88, was included for comparison. The extent of conversion to triptolide after such incubation was also independently determined by HPLC analysis.
The ED50 values (column 3) are calculated directly from the data in each experiment, and the % conversion values (column 4) are calculated as percent of the ED50 value produced by triptolide, designated PG490, incubated in the same plasma (i.e. in the same experiment).
A. Incubation of compounds with human serum. Pooled human serum was stored in aliquots at −80° C. Test compounds were added at 20 mM to thawed human serum in 1.5 ml microfuge tubes and incubated at 37° C. in a water bath for varying periods of time. The test samples were placed on ice until dilution for the bioassay. Controls consisted of the compounds incubated in complete tissue culture medium (RPMI 1640 medium plus 5% heat-inactivated fetal calf serum, 1% HEPES, 1% pen/strep, 1% glutamine) rather than human serum.
B. Apoptosis assay of compounds incubated with human serum. Test samples were diluted to 1 mM in complete tissue culture medium. Aliquots were placed in microculture plates and serial dilutions were prepared so that the final concentration would encompass the range of 1 to 10,000 nM with half-log increments. Cells from an exponentially expanding culture of the Jurkat human T lymphocyte cell line (#TIB-152 obtained from American Type Culture Collection, Manassas, Va.) were harvested, washed once by centrifugation and dilution in complete tissue culture medium, and diluted to a concentration of 1×10^6 cells/ml. A volume of 100 μl of Jurkat cells (1×10^5 cells) was added to wells containing 100 μl of the diluted compounds, and the plates were incubated at 37° C. in a 5% CO2 incubator. After 24 hours, the plates were centrifuged to pellet the cells, and the cells were washed twice with 2% heat-inactivated fetal calf serum in PBS. To each well, 500 ul of binding buffer was added according to the Annexin V assay procedure (BioVision, Inc., Mountain View, Calif.). Next, 5 μl of the fluorescein isothiocyanate (FITC) conjugate of Annexin V (BioVision, Inc.) was added to each well, followed by 5 minutes of incubation in the dark. In some assays, propidium iodide (BioVision, Inc.) was added at this stage to check for necrotic cells. The contents of the wells were individually transferred into test tubes, and apoptosis was analyzed using a FACSCalibur flow cytometer (BD Immunocytometry Systems, San Jose, Calif.). Cells positive for Annexin V binding were considered to be apoptotic, and the data were calculated as percent apoptotic cells.
C. Comparison of bioactivities after incubation of compounds in human serum. The data were plotted as the concentration of compound incubated in serum versus percent apoptotic cells. The concentration of compound inducing 50% apoptosis (ED50) was calculated from these dose response curves. […] This percentage conversion was used to compare the bioactivity of various compounds after incubation in human serum.

A short description of data set [2]: in vitro. The settings on record: for half-life: human, plasma; for max. conversion at 48 hr in human plasma by HPLC: incomplete conversion to triptolide, 48 hr incubation. Here is the method: as §1
Prodrug conversions to triptolide as determined independently by HPLC are given in […].

Data set [3] relates to IL-2 production in Jurkat human T lymphocyte cells. The data set can be described thus: IL-2 production assay for activity of compounds incubated with human serum. The settings on record: for IC50: IL-2 production in Jurkat cells after incubation with pooled human serum for 48 hours at 37° C.; for Conversion (%): percent of the IC50 value produced by triptolide (PG490) in the same experiment, human serum 48 hours. Here is the method:
Several compounds of formula I were analyzed for their capacity to inhibit IL-2 production in Jurkat human T lymphocyte cells, after incubation with pooled human serum for 48 hours at 37° C. (see Example 20). An ester prodrug, triptolide-14-succinate, designated PG490-88, was included for comparison.
The IC50 values (column 1) are calculated directly from the data in each experiment. The % conversion values (column 2) are calculated as the percent of the IC50 value produced by triptolide, designated PG490, incubated in the same plasma (i.e. in the same experiment).
A. IL-2 production assay for activity of compounds incubated with human serum. Test samples were diluted to 1 mM in complete tissue culture medium. […] Cells from an exponentially expanding culture of the Jurkat human T lymphocyte cell line (#TIB-152 obtained from American Type Culture Collection, Manassas, Va.) were harvested, washed once by centrifugation and dilution in complete tissue culture medium, and diluted to a concentration of 2×10^6 cells/ml. A volume of 50 μl of Jurkat cells (1×10^5 cells) was added to wells containing 100 μl of the diluted compounds, 50 μl of PMA (10 ng/ml) was added to each well, and the plates were incubated at 37° C. in a 5% CO2 incubator. After 24 hours, the plates were centrifuged to pellet the cells, 150 μl of supernatant was removed from each well, and the samples were stored at −20° C. The stored supernatants were analyzed for human IL-2 concentration using the Luminex 100 (Luminex Corporation, Austin, Tex.), Luminex microspheres coupled with anti-IL-2 capture antibody, and fluorochrome-coupled anti-IL-2 detection antibody. The data were expressed as ng/ml of IL-2.
B. Comparison of bioactivities after incubation of compounds in human serum. The data were plotted as the concentration of compound incubated in serum versus IL-2 concentration. The concentration of compound inducing a 50% decrease in the IL-2 concentration (IC50) was calculated from these dose response curves. […] This percentage conversion was used to compare the bioactivity of various compounds after incubation in human serum.

Where [4] appears, read: Homo sapiens, Jurkat, 0.5 h, read-out: ED50 (nM) in apoptosis assay after incubation with serum, incubation time in human serum 0.5 hours, 37° C.
[5] abbreviates: Homo sapiens, Jurkat, 1 h, read-out: ED50 (nM) in apoptosis assay after incubation with serum, incubation time in human serum 1 hour, 37° C.
[6] abbreviates: Homo sapiens, Jurkat, 48 h, read-out: ED50 (nM) in apoptosis assay after incubation with serum, incubation time in human serum 48 hours, 37° C.
Where [7] appears, read: incubation time in human serum 0.5 hours.
Where [8] appears, read: incubation time in human serum 1 hour.
Where [9] appears, read: incubation time in human serum 48 hours.

Where a name gives a salt, the structure may show the parent alone. Read-outs that look alike come from different tables or passages of the source.

With `CCOC(=O)O[C@@H]1[C@@]2(C(C)C)O[C@H]2[C@@H]2O[C@]23[C@]12O[C@H]2C[C@H]1C2=C(CC[C@@]13C)C(=O)OC2` [PG674, Triptolide 14-Ethyl Carbonate], the EC50 in data set [1] (setting [4]) came out at 27 nM; in data set [1] (setting [5]) it was 55 nM; in data set [1] (Homo sapiens, Jurkat, 24 h, read-out: ED50 (nM) in apoptosis assay after incubation with serum, incubation time in human serum 24 hours, 37° C.), 60 nM; in data set [1] (setting [6]), 65 nM. For the same compound, the “Conversion, as relative ED50 compared to triptolide (%)” value (“Conversion, as relative ED50 … (%)” below) came out at 188% in data set [1] (setting [7]), 98% in data set [1] (setting [8]), 97% in data set [1] (incubation time in human serum 24 hours) and 100% in data set [1] (setting [9]). In data set [2], this compound gave a half-life of 12 min.

With `CC(C)[C@]12O[C@H]1[C@@H]1O[C@]13[C@]1(O[C@H]1C[C@H]1C4=C(CC[C@@]13C)C(=O)OC4)[C@@H]2OC(=O)Oc1ccccc1` [PG676, Triptolide 14-Phenyl Carbonate], in data set [1] (setting [6]), the EC50 came out at 56 nM. In addition, the “Conversion, as relative ED50 … (%)” value in data set [1] (setting [9]) was 96%. Further, the half-life in data set [2] was found to be 15 min. Further, the IC50 in data set [3] (Homo sapiens, Jurkat, 48 h) was 6 nM. The “Conversion (%)” value in data set [3] amounted to 84%.

On to `CCOCCOC(=O)O[C@@H]1[C@@]2(C(C)C)O[C@H]2[C@@H]2O[C@]23[C@]12O[C@H]2C[C@H]1C2=C(CC[C@@]13C)C(=O)OC2` [PG679, Triptolide 14-Ethoxyethyl Carbonate], for which, in data set [1] (setting [4]), the EC50 turned out to be 39 nM. Also, in data set [1] (setting [7]), the “Conversion, as relative ED50 … (%)” value turned out to be 128%. Also, the half-life in data set [2] turned out to be 11 min. In data set [3] (Homo sapiens, Jurkat, 48 h), it took 12 nM to reach half-maximal inhibition (IC50). Besides, the “Conversion (%)” value in data set [3] was found to be 11%.

On to `COC(=O)COC(=O)O[C@@H]1[C@@]2(C(C)C)O[C@H]2[C@@H]2O[C@]23[C@]12O[C@H]2C[C@H]1C2=C(CC[C@@]13C)C(=O)OC2` [PG680, Triptolide 14-Methoxycarbonylmethyl Carbonate], for which the EC50 in data set [1] (setting [6]) was found to be 58 nM. Besides, in data set [1] (setting [9]), the “Conversion, as relative ED50 … (%)” value is reported as 85%. The compound also returned a half-life in data set [2] of 9 min. In data set [3] (Homo sapiens, Jurkat, 48 h), this compound yielded an IC50 of 3 nM. Further, the “Conversion (%)” value in data set [3] was 44%.

In the case of `CC(C)[C@]12O[C@H]1[C@@H]1O[C@]13[C@]1(O[C@H]1C[C@H]1C4=C(CC[C@@]13C)C(=O)OC4)[C@@H]2OC(=O)OCCN(C)C` [PG682, Triptolide 14-Dimethylaminoethyl Carbonate], the EC50 in data set [1] (setting [5]) was found to be 66 nM; in data set [1] (setting [6]), 32 nM. Moreover, the “Conversion, as relative ED50 … (%)” value in data set [1] (setting [8]) amounted to 76%; in data set [1] (setting [9]), 146%. In data set [2], this compound came in with a half-life of 17 min. This compound also came in with an IC50 in data set [3] of 23 nM. The “Conversion (%)” value in data set [3] was determined as 78%.

For `CC(C)[C@]12O[C@H]1[C@@H]1O[C@]13[C@]1(O[C@H]1C[C@H]1C4=C(CC[C@@]13C)C(=O)OC4)[C@@H]2OC(=O)OCCN(C)C.Cc1ccc(S(=O)(=O)O)cc1` [PG682PTSA, p-Toluenesulfonate Salt of Triptolide 14-Dimethylaminoethyl Carbonate], the “Conversion, as relative ED50 … (%)” value in data set [1] (setting [8]) was determined as 89%. For the same compound, the EC50 in data set [1] (read-out: ED50 (nM) in apoptosis assay after incubation with serum, incubation time in human serum 1 hour, 37° C.) worked out at 57 nM. For the same compound, the half-life in data set [2] was 17 min. In data set [3], it took 2 nM to reach half-maximal inhibition (IC50) and the “Conversion (%)” value amounted to 97%.

`CC(C)[C@]12O[C@H]1[C@@H]1O[C@]13[C@]1(O[C@H]1C[C@H]1C4=C(CC[C@@]13C)C(=O)OC4)[C@@H]2OC(=O)OCC(=O)O` [PG687, Triptolide 14-Hydroxycarbonylmethyl Carbonate]: the “Conversion, as relative ED50 … (%)” value in data set [1] (setting [9]) is recorded as 6%. Moreover, in data set [2], the “max. conversion at 48 hr in human plasma by HPLC” value (from here on “max. conversion at 48 hr”) was determined as 10%. In addition, in data set [3] (Homo sapiens, Jurkat, 48 h), it took 61 nM to reach half-maximal inhibition (IC50). The “Conversion (%)” value in data set [3] was found to be 2%.

For `CC(C)[C@]12O[C@H]1[C@@H]1O[C@]13[C@]1(O[C@H]1C[C@H]1C4=C(CC[C@@]13C)C(=O)OC4)[C@@H]2OC(=O)OCC(=O)[O-].[Na+]` [PG687Na, Sodium Salt of Triptolide 14-Hydroxycarbonylmethyl Carbonate], the “max. conversion at 48 hr” value in data set [2] stood at 10%. For the same compound, in data set [3], the IC50 stood at 92 nM and the “Conversion (%)” value stood at 1%.

As for `CC(C)[C@]12O[C@H]1[C@@H]1O[C@]13[C@]1(O[C@H]1C[C@H]1C4=C(CC[C@@]13C)C(=O)OC4)[C@@H]2OC(=O)OCC(=O)O` [PG687tris, Tris(hydroxymethyl)aminomethane Salt of Triptolide 14-Hydroxycarbonyl-methyl Carbonate], in data set [1] (setting [6]), the EC50 came out at 960 nM. The “Conversion, as relative ED50 … (%)” value in data set [1] (setting [9]) is recorded as 6%. The “max. conversion at 48 hr” value in data set [2] was “max. 10% at”. In data set [3] (Homo sapiens, Jurkat, 48 h), this compound returned an IC50 of 29 nM. For the same compound, in data set [3], the “Conversion (%)” value is on record as 6%.
